# Values joined by “and” are separate entries in the source; they are usually repeats but may differ in a detail not shown here. Identical values can stand only once.
# Assay: CNS penetration: total and unbound drug concentrations in tumor regions, CSF and plasma (LC-MS/MS, equilibrium dialysis);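 further: drug levels in patient tumor tissue from contrast-enhancing and non-enhancing regions sampled under MRI-guided neuronavigation, with plasma and CSF drawn during surgical resection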
# Conditions: for concentration at 5 days / Kp at 120 h / Kp: human, oral
# [1] = Level 6: Ribociclib 600mg QD + Everolimus 70mg once on Day 5, sampling 7-9 Hours, per patient
structure (smiles),measurement,setting,value
"CO[C@H]1C[C@@H]2CC[C@@H](C)[C@@](O)(O2)C(=O)C(=O)N2CCCC[C@H]2C(=O)O[C@H]([C@H](C)C[C@@H]2CC[C@@H](OCCO)[C@H](OC)C2)CC(=O)[C@H](C)/C=C(\C)[C@@H](O)[C@@H](OC)C(=O)[C@H](C)C[C@H](C)/C=C/C=C/C=C/1C [Everolimus, everolimus]",Everolimus.Unbound.plasma,"Level 5: Ribociclib 600mg QD + Everolimus 60mg once on Day 5, sampling 7-9 Hours, per patient",4.09E-04 and 6.26E-04 and 4.66E-04
same,Everolimus.CSF,[1],1.14E-02 and BLQ and 1.29E-03
same,Everolimus.Enhancing.tumor,[1],7.18E-02 and 9.00E-02 and 3.12E-02
same,Everolimus.Non-enhancing.tumor,[1],7.82E-02 and 8.24E-03 and 6.80E-03
same,Everolimus.Plasma.conc,[1],0.0531 and 0.05464 and 0.09057
same,Everolimus.Unbound.enhancing,[1],BLQ
same,Everolimus.Unbound.non-enhancing,[1],BLQ
same,Everolimus.Unbound.plasma,[1],3.00E-04 and 2.82E-04 and 4.90E-04
same,"Kp total drug tumor-to-plasma partition ratio, Enhancing tumor, MAX",everolimus 2.5 mg QD 5 days,2.738
same,"Kp total drug tumor-to-plasma partition ratio, Enhancing tumor, MIN",everolimus 2.5 mg QD 5 days,BLQ
same,"Kp total drug tumor-to-plasma partition ratio, Non-enhancing tumor, MAX",everolimus 2.5 mg QD 5 days,1.02
same,"Kp total drug tumor-to-plasma partition ratio, Non-enhancing tumor, MIN",everolimus 2.5 mg QD 5 days,BLQ
same,"Kp total drug tumor-to-plasma partition ratio, Enhancing tumor, MAX",everolimus 5 mg QD 5 days,1.77
same,"Kp total drug tumor-to-plasma partition ratio, Enhancing tumor, MIN",everolimus 5 mg QD 5 days,0.59
same,"Kp total drug tumor-to-plasma partition ratio, Non-enhancing tumor, MAX",everolimus 5 mg QD 5 days,1.09
same,"Kp total drug tumor-to-plasma partition ratio, Non-enhancing tumor, MIN",everolimus 5 mg QD 5 days,0.37
same,"Kp total drug tumor-to-plasma partition ratio, Enhancing tumor, MAX",everolimus 10 mg QD 5 days,1.97
same,"Kp total drug tumor-to-plasma partition ratio, Enhancing tumor, MIN",everolimus 10 mg QD 5 days,BLQ
same,"Kp total drug tumor-to-plasma partition ratio, Non-enhancing tumor, MAX",everolimus 10 mg QD 5 days,1.07
same,"Kp total drug tumor-to-plasma partition ratio, Non-enhancing tumor, MIN",everolimus 10 mg QD 5 days,0.07
same,"Kp total drug tumor-to-plasma partition ratio, Enhancing tumor, MAX",everolimus 50 mg single dose,1.18
same,"Kp total drug tumor-to-plasma partition ratio, Enhancing tumor, MIN",everolimus 50 mg single dose,0.65
same,"Kp total drug tumor-to-plasma partition ratio, Non-enhancing tumor, MAX",everolimus 50 mg single dose,0.32
same,"Kp total drug tumor-to-plasma partition ratio, Non-enhancing tumor, MIN",everolimus 50 mg single dose,BLQ
same,"Kp total drug tumor-to-plasma partition ratio, Enhancing tumor, MAX",everolimus 60 mg single dose,1.24
same,"Kp total drug tumor-to-plasma partition ratio, Enhancing tumor, MIN",everolimus 60 mg single dose,0.145
same,"Kp total drug tumor-to-plasma partition ratio, Non-enhancing tumor, MAX",everolimus 60 mg single dose,0.51
same,"Kp total drug tumor-to-plasma partition ratio, Enhancing tumor, MAX",everolimus 70 mg single dose,1.64
same,"Kp total drug tumor-to-plasma partition ratio, Enhancing tumor, MIN",everolimus 70 mg single dose,0.34
same,"Kp total drug tumor-to-plasma partition ratio, Non-enhancing tumor, MAX",everolimus 70 mg single dose,1.47
same,"Kp total drug tumor-to-plasma partition ratio, Non-enhancing tumor, MIN",everolimus 70 mg single dose,0.075
same,concentration at 5 days,"CSF, Total everolimus, MAX, 10 mg QD 5 days",2.5 nM
same,concentration at 5 days,"CSF, Total everolimus, MAX, 50 mg single dose",1.5 nM
same,concentration at 5 days,"CSF, Total everolimus, MED, 2.5 mg QD 5 days",0.33 nM
same,concentration at 5 days,"CSF, Total everolimus, MED, 50 mg single dose",0.935 nM
same,concentration at 5 days,"CSF, median everolimus CSF concentration, across the different dose levels",0.48 nM
same,Kp at 120 h,"enhancing tumor and plasma, 2.5 mg",0.62
same,Kp at 120 h,"enhancing tumor and plasma, 5 mg",1.32
same,Kp at 120 h,"enhancing tumor and plasma, 10 mg",1.2
same,Kp,"enhancing tumor and plasma, 50 mg",0.89
same,Kp,"enhancing tumor and plasma, 60 mg",0.33
same,Kp,"enhancing tumor and plasma, 70 mg",1.35
same,concentration at 5 days,"enhancing tumor, Total everolimus, MAX, 2.5 mg QD 5 days",83.4 nM
same,concentration at 5 days,"enhancing tumor, Total everolimus, MAX, 5 mg QD 5 days",39.8 nM
same,concentration at 5 days,"enhancing tumor, Total everolimus, MAX, 10 mg QD 5 days",61.3 nM
same,concentration at 5 days,"enhancing tumor, Total everolimus, MAX, 50 mg single dose",74.1 nM
same,concentration at 5 days,"enhancing tumor, Total everolimus, MAX, 60 mg single dose",87.6 nM
same,concentration at 5 days,"enhancing tumor, Total everolimus, MAX, 70 mg single dose",90 nM
same,concentration at 5 days,"enhancing tumor, Total everolimus, MED, 2.5 mg QD 5 days",5.9 nM
same,concentration at 5 days,"enhancing tumor, Total everolimus, MED, 5 mg QD 5 days",16.6 nM
same,concentration at 5 days,"enhancing tumor, Total everolimus, MED, 10 mg QD 5 days",44 nM
same,concentration at 5 days,"enhancing tumor, Total everolimus, MED, 50 mg single dose",54.5 nM
same,concentration at 5 days,"enhancing tumor, Total everolimus, MED, 60 mg single dose",30.4 nM
same,concentration at 5 days,"enhancing tumor, Total everolimus, MED, 70 mg single dose",71.8 nM
same,concentration at 5 days,"enhancing tumor, Total everolimus, MIN, 5 mg QD 5 days",11.1 nM
same,concentration at 5 days,"enhancing tumor, Total everolimus, MIN, 50 mg single dose",51.6 nM
same,concentration at 5 days,"enhancing tumor, Total everolimus, MIN, 60 mg single dose",9.8 nM
same,concentration at 5 days,"enhancing tumor, Total everolimus, MIN, 70 mg single dose",31.2 nM
same,Kp at 120 h,"non-enhancing tumor / plasma, 5 mg",0.89
same,Kp at 120 h,"non-enhancing tumor / plasma, 10 mg",0.1
same,Kp at 120 h,"non-enhancing tumor and plasma, 2.5 mg",0.49
same,Kp,"non-enhancing tumor and plasma, 50 mg",0.21
same,Kp,"non-enhancing tumor and plasma, 60 mg",0.17
same,Kp,"non-enhancing tumor and plasma, 70 mg",0.15
same,concentration at 5 days,"non-enhancing tumor, Total everolimus, MAX, 2.5 mg QD 5 days",35.3 nM
same,concentration at 5 days,"non-enhancing tumor, Total everolimus, MAX, 5 mg QD 5 days",20.2 nM
same,concentration at 5 days,"non-enhancing tumor, Total everolimus, MAX, 10 mg QD 5 days",33.3 nM
same,concentration at 5 days,"non-enhancing tumor, Total everolimus, MAX, 50 mg single dose",25.1 nM
same,concentration at 5 days,"non-enhancing tumor, Total everolimus, MAX, 60 mg single dose",36.1 nM
same,concentration at 5 days,"non-enhancing tumor, Total everolimus, MAX, 70 mg single dose",78.2 nM
same,concentration at 5 days,"non-enhancing tumor, Total everolimus, MED, 2.5 mg QD 5 days",5.28 nM
same,concentration at 5 days,"non-enhancing tumor, Total everolimus, MED, 5 mg QD 5 days",10.3 nM
same,concentration at 5 days,"non-enhancing tumor, Total everolimus, MED, 10 mg QD 5 days",5 nM
same,concentration at 5 days,"non-enhancing tumor, Total everolimus, MED, 50 mg single dose",15.7 nM
same,concentration at 5 days,"non-enhancing tumor, Total everolimus, MED, 60 mg single dose",13.8 nM
same,concentration at 5 days,"non-enhancing tumor, Total everolimus, MED, 70 mg single dose",8.2 nM
same,concentration at 5 days,"non-enhancing tumor, Total everolimus, MIN, 5 mg QD 5 days",9.2 nM
same,concentration at 5 days,"non-enhancing tumor, Total everolimus, MIN, 10 mg QD 5 days",4.5 nM
same,concentration at 5 days,"non-enhancing tumor, Total everolimus, MIN, 60 mg single dose",11.3 nM
same,concentration at 5 days,"non-enhancing tumor, Total everolimus, MIN, 70 mg single dose",6.8 nM
same,concentration at 5 days,"tumor tissue (enhancing and non-enhancing regions), unbound everolimus concentrations in enhancing and non-enhancing tumor regions (below the lower limit of quantitation), all dose levels",< 0.1 nM

# Reference: paper PMC13070491, “Single-nucleus transcriptomics, pharmacokinetics, and pharmacodynamics of CDK4/6 and mTOR inhibition in a Phase 0/1 trial of recurrent high-grade glioma” (Neuro-Oncology, 2025)
